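These data come from cells grown in 96-well plates and exposed to compound for 48 hours at five concentrations. At the TGI there is no net growth.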
Legend:
Test in all cases: growth of human tumour cells (NCI), 48 h
NCI-H23 lung = system: NCI-H23 lung
SF-539 CNS = system: SF-539 CNS
LOX IMVI melanoma = system: LOX IMVI melanoma
HS 578T breast = system: HS 578T breast
HL-60(TB) leukemia = system: HL-60(TB) leukemia
OVCAR-8 ovarian = system: OVCAR-8 ovarian
K-562 leukemia = system: K-562 leukemia
ACHN renal = system: ACHN renal
M14 melanoma = system: M14 melanoma
SN12C renal = system: SN12C renal
NCI/ADR-RES ovarian = system: NCI/ADR-RES ovarian
MDA-N = system: MDA-N
OVCAR-3 ovarian = system: OVCAR-3 ovarian
SR leukemia = system: SR leukemia
UACC-62 melanoma = system: UACC-62 melanoma
COLO 205 colon = system: COLO 205 colon
UACC-257 melanoma = system: UACC-257 melanoma
OVCAR-5 ovarian = system: OVCAR-5 ovarian
MALME-3M melanoma = system: MALME-3M melanoma
PC-3 prostate = system: PC-3 prostate
SNB-19 CNS = system: SNB-19 CNS
SK-MEL-28 melanoma = system: SK-MEL-28 melanoma
SK-OV-3 ovarian = system: SK-OV-3 ovarian
786-0 renal = system: 786-0 renal
SW-620 colon = system: SW-620 colon
KM12 colon = system: KM12 colon
MDA-MB-231 breast = system: MDA-MB-231 breast
EKVX NSCLC = system: EKVX NSCLC
U251 CNS = system: U251 CNS
SF-268 CNS = system: SF-268 CNS
MOLT-4 leukemia = system: MOLT-4 leukemia
HOP-62 NSCLC = system: HOP-62 NSCLC
MCF7 breast = system: MCF7 breast
HCT-15 colon = system: HCT-15 colon
CAKI-1 renal = system: CAKI-1 renal
HOP-92 NSCLC = system: HOP-92 NSCLC
A498 renal = system: A498 renal
DU-145 prostate = system: DU-145 prostate
HT29 colon = system: HT29 colon
CCRF-CEM leukemia = system: CCRF-CEM leukemia
SNB-75 CNS = system: SNB-75 CNS
SF-295 CNS = system: SF-295 CNS
SK-MEL-2 melanoma = system: SK-MEL-2 melanoma
BT-549 breast = system: BT-549 breast
RPMI-8226 leukemia = system: RPMI-8226 leukemia
T-47D breast = system: T-47D breast
SK-MEL-5 melanoma = system: SK-MEL-5 melanoma
HCC-2998 colon = system: HCC-2998 colon
MDA-MB-435 = system: MDA-MB-435
HCT-116 colon = system: HCT-116 colon
NCI-H226 lung = system: NCI-H226 lung
UO-31 renal = system: UO-31 renal
NCI-H460 lung = system: NCI-H460 lung
A549 NSCLC = system: A549 NSCLC
OVCAR-4 ovarian = system: OVCAR-4 ovarian
TK-10 renal = system: TK-10 renal
NCI-H522 lung = system: NCI-H522 lung
IGROV1 ovarian = system: IGROV1 ovarian
RXF 393 renal = system: RXF 393 renal

Compound: O=C(c1cccc(OCc2ccccc2)c1OCc1ccccc1)N1CCSC1=S
- TGI (NCI-H23 lung): 74.9 µM
- TGI (SF-539 CNS): > 100 µM
- TGI (LOX IMVI melanoma): > 100 µM
- TGI (HS 578T breast): > 45.8 µM
- TGI (HL-60(TB) leukemia): 33.1 µM
- TGI (OVCAR-8 ovarian): > 100 µM
- TGI (K-562 leukemia): > 100 µM
- TGI (ACHN renal): > 100 µM
- TGI (M14 melanoma): > 100 µM
- TGI (SN12C renal): > 100 µM
- TGI (NCI/ADR-RES ovarian): > 100 µM
- TGI (MDA-N): > 100 µM
- TGI (OVCAR-3 ovarian): 62.9 µM
- TGI (SR leukemia): 45.2 µM
- TGI (UACC-62 melanoma): 42.6 µM
- TGI (COLO 205 colon): 26.4 µM
- TGI (UACC-257 melanoma): > 87.7 µM
- TGI (OVCAR-5 ovarian): > 100 µM
- TGI (MALME-3M melanoma): > 72.9 µM
- TGI (PC-3 prostate): > 100 µM
- TGI (SNB-19 CNS): > 100 µM
- TGI (SK-MEL-28 melanoma): > 100 µM
- TGI (SK-OV-3 ovarian): > 100 µM
- TGI (786-0 renal): > 100 µM
- TGI (SW-620 colon): > 100 µM
- TGI (KM12 colon): 36.9 µM
- TGI (MDA-MB-231 breast): > 78.2 µM
- TGI (EKVX NSCLC): > 100 µM
- TGI (U251 CNS): > 100 µM
- TGI (SF-268 CNS): > 52.8 µM
- TGI (MOLT-4 leukemia): 38.7 µM
- TGI (HOP-62 NSCLC): > 100 µM
- TGI (MCF7 breast): > 100 µM
- TGI (HCT-15 colon): > 100 µM
- TGI (CAKI-1 renal): > 92.9 µM
- TGI (HOP-92 NSCLC): > 100 µM
- TGI (A498 renal): 80.1 µM
- TGI (DU-145 prostate): > 100 µM
- TGI (HT29 colon): > 100 µM
- TGI (CCRF-CEM leukemia): 24.4 µM
- TGI (SNB-75 CNS): 34.2 µM
- TGI (SF-295 CNS): > 100 µM
- TGI (SK-MEL-2 melanoma): > 75.4 µM
- TGI (BT-549 breast): > 100 µM
- TGI (RPMI-8226 leukemia): 43 µM
- TGI (T-47D breast): > 100 µM
- TGI (SK-MEL-5 melanoma): 31.7 µM
- TGI (HCC-2998 colon): > 100 µM
- TGI (MDA-MB-435): > 100 µM
- TGI (HCT-116 colon): > 100 µM
- TGI (NCI-H226 lung): > 100 µM
- TGI (UO-31 renal): 97.2 µM
- TGI (NCI-H460 lung): > 100 µM
- TGI (A549 NSCLC): > 100 µM
- TGI (OVCAR-4 ovarian): > 100 µM
- TGI (TK-10 renal): > 100 µM
- TGI (NCI-H522 lung): > 58.1 µM
- TGI (IGROV1 ovarian): > 100 µM

Compound: C[C@]12CCC(=O)C=C1CC[C@@H]1[C@@H]2[C@@H](O)C[C@@]2(C)[C@H]1CC[C@]2(O)C(=O)CO
- TGI (NCI-H23 lung): > 100 µM
- TGI (SF-539 CNS): > 100 µM
- TGI (LOX IMVI melanoma): > 100 µM
- TGI (HS 578T breast): > 100 µM
- TGI (HL-60(TB) leukemia): > 100 µM
- TGI (OVCAR-8 ovarian): > 100 µM
- TGI (K-562 leukemia): > 100 µM
- TGI (ACHN renal): > 100 µM
- TGI (M14 melanoma): > 100 µM
- TGI (SN12C renal): > 100 µM
- TGI (NCI/ADR-RES ovarian): > 100 µM
- TGI (MDA-N): > 100 µM
- TGI (OVCAR-3 ovarian): > 100 µM
- TGI (SR leukemia): > 100 µM
- TGI (UACC-62 melanoma): > 100 µM
- TGI (COLO 205 colon): > 100 µM
- TGI (UACC-257 melanoma): > 100 µM
- TGI (OVCAR-5 ovarian): > 100 µM
- TGI (MALME-3M melanoma): > 100 µM
- TGI (PC-3 prostate): > 100 µM
- TGI (SNB-19 CNS): > 100 µM
- TGI (SK-MEL-28 melanoma): > 100 µM
- TGI (SK-OV-3 ovarian): > 100 µM
- TGI (786-0 renal): > 100 µM
- TGI (SW-620 colon): > 100 µM
- TGI (KM12 colon): > 100 µM
- TGI (MDA-MB-231 breast): > 100 µM
- TGI (EKVX NSCLC): > 100 µM
- TGI (U251 CNS): > 100 µM
- TGI (SF-268 CNS): > 100 µM
- TGI (RXF 393 renal): > 100 µM
- TGI (MOLT-4 leukemia): > 100 µM
- TGI (HOP-62 NSCLC): > 100 µM
- TGI (MCF7 breast): > 100 µM
- TGI (HCT-15 colon): > 100 µM
- TGI (CAKI-1 renal): > 100 µM
- TGI (HOP-92 NSCLC): > 100 µM
- TGI (A498 renal): > 100 µM
- TGI (DU-145 prostate): > 100 µM
- TGI (HT29 colon): > 100 µM
- TGI (CCRF-CEM leukemia): > 100 µM
- TGI (SNB-75 CNS): > 100 µM
- TGI (SF-295 CNS): > 100 µM
- TGI (SK-MEL-2 melanoma): > 100 µM
- TGI (BT-549 breast): > 100 µM
- TGI (RPMI-8226 leukemia): > 100 µM
- TGI (T-47D breast): > 100 µM
- TGI (SK-MEL-5 melanoma): > 100 µM
- TGI (HCC-2998 colon): > 100 µM
- TGI (MDA-MB-435): > 100 µM
- TGI (HCT-116 colon): > 100 µM
- TGI (NCI-H226 lung): > 100 µM
- TGI (UO-31 renal): > 100 µM
- TGI (NCI-H460 lung): > 100 µM
- TGI (A549 NSCLC): > 100 µM
- TGI (OVCAR-4 ovarian): > 100 µM
- TGI (TK-10 renal): > 100 µM
- TGI (NCI-H522 lung): > 100 µM
- TGI (IGROV1 ovarian): > 100 µM
